The text below walks through data of patent US9981983B2, “Thienopyranones as kinase inhibitors” (SignalRx Pharmaceuticals, Inc., priority 2008, dated 2018).

Holding throughout (format): cell-based
In one test the test system is PC3 cells. Kind of test: PC3 prostate cancer cell proliferation (WST). Conditions: Homo sapiens, PC-3; 72 hours; read-out: IC50 PC3 Proliferation.
Another test relates to PC3 (Prostate). Kind of test: Cell proliferation MTS assay, PC3. The note with it: 72 hours. The method, then:
(§1) All cell lines were obtained from ATCC and cultured and plated according to ATCC recommendations. Cells were cultured in complete culture media containing 10% heat-inactivated fetal bovine serum (FBS, Mediatech, Inc.). For adherent cell lines, once cells reached 70% confluency, they were trypsinized and resuspended in phenol red free RPMI media (Mediatech, Inc.) plus 10% heat-inactivated FBS (assay buffer) and 100 μL aliquots were plated into each well of 96-well microtiter plates at a final density of 1,000-2,000 cells/well. Cells were incubated overnight at 37° C. in 5% CO2, and treated with test compounds on the next day. For suspension cell lines, cells were resuspended in assay buffer, plated into 96-well microtiter plates at a density of 10^4-10^5 cells/well/100 μL, and treatment was started on the same day. Cells were treated with vehicle (DMSO) and test compounds for 72 hours at concentration of 100, 70, 40, 20, 10, 5, 2.5, 1.25, 0.5 and 0.2 μM in four replicates at 37° C. in 5% CO2.
On the technique in general: Tetrazolium dyes change colour on reduction, which living cells bring about.

For another test, the system named is DU145 (Prostate). Kind of test: Cell proliferation MTS assay, DU145. Conditions: Homo sapiens, DU-145, 72 hours. The method, then:
as §1

In the next test the test system is HT29 (Colon). Kind of test: Cell proliferation MTS assay, HT29. Conditions: Homo sapiens, HT-29, 72 hours. The method, then: as §1
In the next test the test system is U87MG (Brain). The experiment in a line: Cell proliferation MTS assay, U87MG. Conditions: Homo sapiens, U-87 MG, 72 hours. The method, then:
as §1

In another test the test system is 786-O (Renal). The experiment in a line: Cell proliferation MTS assay, 786-O. The note with it: Homo sapiens, 786-0, 72 hours. On the procedure:
as §1

Test [1] relates to HUVEC (Endothelial-noncancer). Kind of test: Cell proliferation MTS assay, HUVEC. Conditions: Homo sapiens, 72 hours. On the procedure: as §1
Test [2] has as its system AKT Ser473 phosphorylation in renal cell carcinoma (786-O) Cell Line. The experiment in a line: pAKT Ser473 ELISA in 786-O cells stimulated by Bv8, VEGF, IGF. Conditions: Homo sapiens, 786-0, 786-O, read-out: Concentration Required to Inhibit pAKT to Half-maximal Levels. On the procedure:
This was followed by the addition of IGF, VEGF and Bv8 to 0.1 μg/mL, 0.1 μg/mL and 2.5 μg/mL respectively for another 30 minutes before harvesting the cells and making cell lysates with RIPA buffer keeping on ice, pAKT levels were measured in duplicate samples with Cell Signaling's Ser473 pAKT ELISA kit. Optical density plate readings of pAKT levels were made at 450 nm (OD450 nm) and were normalized by total protein amount of the cell lysates. The dose of compound at which pAKT levels are reduced to 50% of the non-treatment level was calculated using GraphPad Prism4 software and is listed in Tables 4 and 5 below.
For orientation: ELISA stands for enzyme-linked immunosorbent assay.

In another test the test system is BT-474 cells. The experiment in a line: Cellular proliferation (Example B method), BT-474. The note with it: Homo sapiens; BT-474, breast cancer. On the procedure:
PC3 cells were obtained from the American Type Culture Collection (ATCC, Manassas, Va., Cat.# CRL-1435) Two thousand cells from the prostate cancer line PC3 were placed in 50 μL of complete RPMI 1640 media (Invitrogen, Carlsbad, Calif., Cat.#22400-105) with 10% fetal bovine serum (Invitrogen, Carlsbad, Calif., Cat.#10438-026) into each well of 96 well cell culture plates in a hexaplicate sampling pattern. A 50 μL aliquot of test compound (prepared from stock test compounds in DMSO diluted into media) was added to the appropriate well such that the final concentrations of test compound were 200, 40, 8, 1.6, 0.32, 0.064, 0.0128, 0.00256, and 0 μM and the final DMSO concentration was less than or equal to 0.2%.
The plates were incubated for 72 hours 37° C. in an atmosphere of 5% CO2. At the end of this time a 10 μL aliquot of WST solution (Roche Applied Science, Mannheim, Germany) was added into each of the wells. Cells were exposed to the WST solution for 4 hours. A SpectraMax Plus spectrophotometric plate reader (Molecular Devices, Sunnydale, Calif.) was then used to measure the optical density at 450 nm (OD450 nm). Sigmoidal curves were drawn for the dose responses and IC50 values were calculated using the software package GraphPad Prism4 (GraphPad Software, Inc., San Diego, Calif.).
Several other cancer cell lines were obtained from ATCC and grown according to their recommendations and treated with test compounds to obtain the concentration of test compound that inhibited the cellular proliferation by 50% of no-treatment controls. These IC50 values (μM) are listed in Table 7 below obtained by the methods described in Example B: […]

In another test the test system is LNCaP cells. The experiment in a line: Oxidative stress of prostate cancer cells (8-iso-Prostaglandin F2α ELISA). Conditions: for OD450 nm reading / 8-iso-Prostaglandin F2α generated: 20 μM; for 8-iso-Prostaglandin F2α generated: control 1.5 μg/mL. On the procedure: LNCaP cells were obtained from the American Type Culture Collection (ATCC, Manassas, Va., Cat.# CRL-1740). 3.5 million cells from the prostate cancer line LNCaP were placed into each of three 10 cm culture dishes and allowed to grow overnight in complete RPMI 1640 media (Invitrogen, Carlsbad, Calif., Cat.#22400-105) with 10% fetal bovine serum (Invitrogen, Carlsbad, Calif., Cat#10438-026). Test compound was added into the dishes to the concentration of 0 and 20 μM and allowed to incubate at 37° C. in a 5% CO2 atmosphere for 2 and 24 hours. Following this the pH of the cell culture media was adjusted down to 3.5 with 2M HCl. After sitting at 4° C. for 15 minutes, the cell culture media from each culture dishes was applied to each of three C18 reverse phase columns (Biotage ISOLUTE, Part #220-0020-B, Lot #5223506B2A, www.biotage.com) which were prewashed with 10 mL/column of ethanol followed by 10 mL/column of deionized water. The loaded columns were then washed with 10 mL/column of water, followed by 10 mL/column of 15% ethanol, and finally 10 mL/column hexane. The desired samples were then eluted from the columns by addition of 10 mL/column ethyl acetate. The ethyl acetate was then evaporated to dryness using a rotating evaporator. Each sample was then dissolved in 500 μL of Assay Buffer provided in BioMol's Isoprostane Oxidative Stress Assay Kit A (Cat. # AK150-0001, Lot #3-08010825). Using the kit reagents according to the manufacturer's instructions the oxidative product 8-iso-Prostaglandin F2α was quantitated by ELISA. Also, using reagents from the kit a standard curve of oxidation product (8-iso-Prostaglandin F2α) versus optical density reading at 450 nm. From this curve optical density readings from the test samples were converted to μg/mL of the oxidation marker 8-iso-Prostaglandin F2α. This kit from BioMol is designed to determine the amount of the 8-iso-Prostaglandin F2α produced as a marker for the amount of oxidative stress experienced by the cells.

SMILES strings stand for the structures. Where two headings read alike, the source gives them in different places.

Take `O=c1cc(N2CCOCC2)oc2c(-c3ccc4c(c3)OCCO4)csc12` [Compound 28, 3-(2,3-dihydrobenzo[b][1,4]dioxin-6-yl)-5-morpholino-7H-thieno[3,2-b]pyran-7-one]: the IC50 with PC3 cells is 1.3 to 1.91 µM; in the test with PC3 (Prostate), 1.22 µM; with DU145 (Prostate), 2.07 µM; with HT29 (Colon), 2.4 µM; in the test with U87MG (Brain), 1.92 µM; in the test on 786-O (Renal) it was 2.82 µM. The IC50 in test [1] worked out at 1.23 µM; in [2] (stimulant Bv8), 0.38 µM; in test [2] (stimulant IGF), 2.6 µM; in [2] (stimulant PBS), 0.541 µM; in [2] (stimulant VEGF), 0.343 µM; in the test with BT-474 cells it was 3.77 µM. Moreover, the results for the OD450 nm reading with LNCaP cells (2 hours exposure) and in the test with LNCaP cells (24 hours exposure) were 1.01 units and 0.96 units, respectively. The “8-iso-Prostaglandin F2α generated” value with LNCaP cells (2 hours) came to 18.0 µg/mL; in the test on LNCaP cells (24 hours), 21.0 µg/mL. Also, the “increase of oxidation marker 8-iso-Prostaglandin F2α relative to untreated controls” value with LNCaP cells (2 hours) came to 12 fold; with LNCaP cells (24 hours) it was 14 fold.
